{"source": "paper PMC9973354", "about": "(mBio, 2022)", "assay_type_in_all_cases": "cell-based, Pseudomonas aeruginosa", "key": {"[1]": {"system": "PA14 ΔfpvA ΔfpvB pHERD20T-fpvA", "assay": "Checkerboard assay TS and siderophores, FpvA expressed", "conditions": "10:90 + 2% arabinose", "text": "We investigated this hypothesis by treating the ΔfpvA ΔfpvB mutant complemented with fpvA or fpvB with TS and pyoverdine-Fe^3+. If pyoverdine competes with TS for the same binding site in the transporter, a reduction in TS susceptibility would be expected, as competition would decrease entry of the antibiotic into the cell. TS susceptibility decreased >8-fold with increasing concentrations of pyoverdine-Fe^3+ when FpvA was expressed (see Fig. S2A in the supplemental material).\nSupplementary file : FIG S2 Checkerboard assays of the PA14 ΔfpvA ΔfpvB strain complemented with fpvA and fpvB in trans with TS and siderophores. […] Checkerboards of the PA14 ΔfpvA ΔfpvB pHERD20T-fpvB strain with TS and enterobactin (G), ferrioxamine E (H), and arthrobactin (I). Results are averaged from three independent biological replicates. Cells in the assay were grown in 10:90 + 2% arabinose. Download FIG S2, EPS file, 2.2 MB.\nCheckerboards (8 rows by 8 columns) were conducted as previously described in a 96-well plate (Nunc) ([13], [14]). TS at 75× the final concentration dissolved in DMSO was added in columns from bottom to top in increasing concentrations. Siderophores at 75× the final concentration dissolved in DSMO were added from in rows from left to right in increasing concentrations. Four columns were used for vehicle controls (DMSO) and sterile controls. […] Plates were sealed to prevent evaporation and incubated at 37°C overnight in a shaking incubator (200 rpm). The next day, the OD600 was determined with a plate reader (Thermo Scientific) and normalized to percent of growth of the vehicle control (DMSO) after subtracting the OD600 from blank media."}, "[2]": {"system": "PA14 ΔfpvA ΔfpvB ΔfiuA ΔfoxA quadruple mutant", "assay": "Growth phenotypes of deletion mutants, quadruple mutant", "conditions": "64 μg/mL DSX, 10 μg/mL siderophores, 10:90", "text": "(§1) PA14, ΔfpvA, ΔfpvB, and ΔfpvA ΔfpvB strains treated with TS (A) and DSX (B) in 10:90. Green indicates growth, and white indicates no growth. Growth is expressed as percent of control. The PA14 ΔfpvA ΔfpvB strain complemented with pHERD20T, fpvA, or fpvB treated with TS (C) and DSX (D) in 10:90. […] All experiments are averaged from three independent biological replicates. Blue indicates growth and white indicates no growth. (H) Summary of growth phenotypes of WT PA14 and combinations of single, double, triple, and quadruple deletion mutants in fpvA, fpvB, fiuA, and foxA. […] Green indicates growth, whereas no growth is indicated in white. […] Representative plates are shown.\n(§2) If there were no transporters for a particular siderophore, the mutant would fail to grow due to iron restriction."}, "[3]": {"system": "PA14 mutant combinations that include ΔfoxA", "assay": "Growth phenotypes of deletion mutants, ΔfoxA combinations", "conditions": "any mutant combination with ΔfoxA; 10 μg/mL ferrioxamine E, 10:90", "text": "as §1, §2"}, "PA14 ΔpvdA ΔpchA mutant": {"system": "PA14 ΔpvdA ΔpchA mutant", "assay": "Growth curves with DSX and siderophores, ΔpvdA ΔpchA", "conditions": "DSX 64 μg/mL, 20 h", "procedure": "(§3) Supplementary file : FIG S1 (A) FpvB is expressed in WT PA14 and the ΔfpvA mutant grown in 10:90. PilF was used as a loading control for outer membrane proteins. (B) FpvA is expressed from WT PA14 grown in 10:90. […] PilF was used as a loading control for outer membrane proteins. (C) Growth curves of PA14 and mutants with DSX and different siderophores in 10:90. PA14, ΔfpvA, ΔfpvB, ΔfpvA ΔfpvB, and ΔpvdA ΔpchA strain growth. Blue indicates control, purple indicates treatment with 64 μg/mL DSX, yellow indicates treatment with 10 μg/mL pyoverdine (PA14), and red indicates treatment with 64 μg/mL DSX and 10 μg/mL pyoverdine (PA14). (D) ΔfpvA, ΔfpvA ΔfpvB, and ΔpvdA ΔpchA strain growth. Blue indicates control, purple indicates treatment with 64 μg/mL DSX, grey indicates treatment with 10 μg/mL ferrichrome, and red indicates treatment with 64 μg/mL DSX and 10 μg/mL ferrichrome. (E) ΔfpvA, ΔfpvA ΔfpvB, and ΔpvdA ΔpchA strain growth. […] Download FIG S1, EPS file, 8.5 MB.\n(§4) As a control, a ΔpvdA ΔpchA mutant unable to make pyoverdine and pyochelin was also tested. Growth of this mutant was inhibited by DSX."}, "PA14 ΔfpvA mutant [4]": {"system": "PA14 ΔfpvA mutant", "assay": "MIC assay, ΔfpvA mutant", "conditions": "Pseudomonas aeruginosa, PA14", "procedure": "(§5) MIC assays were conducted as previously described ([13], [14]). Overnight cultures were grown in LB from a glycerol stock at 37°C with shaking (200 rpm). Subcultures in 10:90 (1:100 dilution) were cultured for 4 h. Cells were adjusted to an optical density at 600 nm (OD600) of 0.1/500 in 10:90. All compounds were serially diluted 2-fold in dimethyl sulfoxide (DMSO) or H2O at 75× the final concentration. Plates were sealed to prevent evaporation and incubated at 37°C overnight in a shaking incubator (200 rpm). The next day, the OD600 was determined with a plate reader (Thermo Scientific) and normalized to percent of growth of the vehicle control after subtracting the OD600 from blank media."}, "PA14 ΔfpvA ΔfpvB mutant [5]": {"system": "PA14 ΔfpvA ΔfpvB mutant", "assay": "MIC assay, ΔfpvA ΔfpvB mutant", "conditions": "Pseudomonas aeruginosa, PA14", "procedure": "as §5"}, "PA14": {"system": "PA14", "assay": "Growth curves with DSX and siderophores, WT PA14", "conditions": "DSX 64 μg/mL or pyoverdine 10 μg/mL alone, 20 h, 10:90", "procedure": "as §3\n(§6) Another explanation for the susceptibility of the ΔfpvA mutant to DSX is that the mutant produces less pyoverdine compared to WT cells due to loss of the signaling cascade that controls siderophore production in response to its binding to FpvA ([25]). To differentiate whether the fpvA mutant was susceptible to DSX because of reduced pyoverdine production or because FpvB was a poor pyoverdine transporter, we treated the WT, ΔfpvA, ΔfpvB, and ΔfpvA ΔfpvB strains with DSX (64 μg/mL) without and with exogenous pyoverdine (10 μg/mL) for 20 h (Fig. 1; see also Fig. S1C). Growth of the ΔfpvA mutant should be restored if there are functional pyoverdine transporters. […] The growth of the ΔfpvA ΔfpvB mutant was inhibited by DSX and pyoverdine, confirming previously published results ([18])."}, "[6]": {"system": "PA14 ΔfpvA ΔfpvB pHERD20T-fpvA", "assay": "MIC assay, ΔfpvA ΔfpvB complemented with fpvA", "conditions": "complementation with fpvA, arabinose induction", "procedure": "(§7) The ΔfpvA ΔfpvB mutant was complemented in trans with pHERD20T-fpvA or pHERD20T-fpvB. pHERD20T is an arabinose-inducible vector with expression driven by the PBAD promoter under the control of AraC ([30]).\nas §5"}, "[7]": {"system": "PA14 ΔfpvA ΔfpvB pHERD20T-fpvB", "assay": "MIC assay, ΔfpvA ΔfpvB complemented with fpvB", "conditions": "complementation with fpvB, arabinose induction", "procedure": "as §7, §5"}, "PA14 ΔfpvA ΔfpvB mutant [8]": {"system": "PA14 ΔfpvA ΔfpvB mutant", "assay": "Growth curves with DSX and siderophores, ΔfpvA ΔfpvB", "conditions": "DSX 64 μg/mL, pyoverdine 10 μg/mL, 20 h", "procedure": "as §3, §6, §4"}, "PA14 ΔfpvA mutants": {"system": "PA14 ΔfpvA mutants", "assay": "Growth phenotypes of deletion mutants, ΔfpvA mutants", "conditions": "64 μg/mL DSX, 10:90", "text": "as §1, §2"}, "PA14 ΔfpvA mutant [9]": {"system": "PA14 ΔfpvA mutant", "assay": "Growth curves with DSX and siderophores, ΔfpvA", "conditions": "DSX 64 μg/mL or pyoverdine 10 μg/mL alone, 20 h, 10:90", "procedure": "as §3, §6, §4"}, "FpvB": {"system": "FpvB", "assay": "Western blot of FLAG-tagged FpvB expression after compound treatment", "conditions": "WT PA14 fpvB-FLAG; 10 μg/mL siderophores, 64 μg/mL DSX, 10:90"}, "[10]": {"system": "PA14 ΔfpvA ΔfpvB pHERD20T-fpvA T660C", "assay": "MIC assay, ΔfpvA ΔfpvB expressing FpvA T660C", "conditions": "10:90 + 2% arabinose", "text": "FpvA T660C was used previously to measure pyoverdine-Fe^3+ binding affinity ([32]). However, this technique has not been applied to FpvB. A high-confidence structural model of FpvB was generated using AlphaFold2 ([33], [34]) and aligned with the structure of FpvA (PDB accession number 2O5P) to identify a residue suitable for labeling, with the assumption that FpvA and FpvB undergo similar conformational changes upon ferrisiderophore binding (see Fig. S3A through C in the supplemental material). Based on this analysis, FpvB R648 was mutated to Cys. FpvA T660C and FpvB R648C were each expressed in trans in the ΔfpvA ΔfpvB mutant. […] We could also detect expression by fluorescence microscopy with peripheral labeling consistent with expression in the outer membrane (Fig. 3B). Labeling was undetectable in empty vector and WT controls (see Fig. S4A in the supplemental material).\nSupplementary file : FIG S3 Overlay of FpvA and FpvB showing residues mutated to cysteine for labeling with maleimide dyes. FpvA (PDB accession number 2O5P) was superimposed with the AlphaFold2 model of FpvB. FpvA is shown in beige and FpvB in blue. […]\nMIC assays were conducted as previously described ([13], [14]). […] The next day, the OD600 was determined with a plate reader (Thermo Scientific) and normalized to percent of growth of the vehicle control after subtracting the OD600 from blank media."}, "PA14 ΔfpvB mutant": {"system": "PA14 ΔfpvB mutant", "assay": "Growth curves with DSX and siderophores, ΔfpvB", "conditions": "DSX 64 μg/mL or pyoverdine 10 μg/mL alone, 20 h, 10:90", "procedure": "as §3, §6"}}, "data": [{"smiles": "O=C1CCC(=O)N(O)CCCCCNC(=O)CCC(=O)N(O)CCCCCNC(=O)CCC(=O)N(O)CCCCCN1", "note": "[ferrioxamine E]", "values": [{"measurement": "effect of siderophore on TS susceptibility", "setting": "[1]", "result": "None of those siderophores reduced TS susceptibility"}, {"measurement": "growth in the presence of compound", "setting": "[2]", "result": "failed to grow"}, {"measurement": "growth in the presence of compound", "setting": "[3]", "result": "inhibited"}]}, {"smiles": "O=C(O)c1ccc(-n2nc(-c3ccccc3O)nc2-c2ccccc2O)cc1", "note": "[DSX, deferasirox]", "values": [{"measurement": "growth versus control", "setting": "PA14 ΔpvdA ΔpchA mutant", "result": "inhibited"}, {"measurement": "MIC", "setting": "PA14 ΔfpvA mutant [4]", "result": 8, "unit": "µg/mL"}, {"measurement": "MIC", "setting": "PA14 ΔfpvA ΔfpvB mutant [5]", "result": 8, "unit": "µg/mL"}, {"measurement": "growth versus control", "setting": "PA14", "result": "growth was similar between the control and DSX conditions"}, {"measurement": "growth with DSX", "setting": "[6]", "result": "restored growth"}, {"measurement": "growth with DSX", "setting": "[7]", "result": "could not restore growth"}, {"measurement": "growth versus control", "setting": "PA14 ΔfpvA ΔfpvB mutant [8]", "result": "inhibited"}, {"measurement": "growth in the presence of compound", "setting": "PA14 ΔfpvA mutants", "result": "unable to grow"}, {"measurement": "growth versus control", "setting": "PA14 ΔfpvA mutant [9]", "result": "inhibited growth"}, {"measurement": "stimulation of FpvB expression", "setting": "FpvB", "result": "None of the compounds stimulated expression"}, {"measurement": "growth in the presence of compound", "setting": "[2]", "result": "failed to grow"}, {"measurement": "growth with DSX", "setting": "[10]", "result": "restored growth with DSX"}, {"measurement": "growth versus control", "setting": "PA14 ΔfpvB mutant", "result": "growth was similar between the control and DSX conditions"}]}]}
